Test results as given in the NIST ThermoML archive (doi:10.1007/s10765-008-0535-5).

Assay: molar heat capacity at constant volume; wn = mass fraction of the nth substance listed
Details: Liquid, Vacuum adiabatic calorimetry, w2 = 0.5111

FC(F)C(F)(F)F [pentafluoroethane] + FCF
Details	molar heat capacity at constant volume [J/K/mol]
268.15 K, 3423 kPa	62.96
269.15 K, 4259 kPa	64.11
270.15 K, 5065 kPa	63.82
270.15 K, 5095 kPa	63.25
270.15 K, 5157 kPa	63.82
271.15 K, 5903 kPa	64.9
271.15 K, 5931 kPa	64.04
271.15 K, 5992 kPa	62.96
272.15 K, 6740 kPa	64.18
272.15 K, 6767 kPa	64.61
272.15 K, 6828 kPa	63.25
273.15 K, 7576 kPa	64.54
273.15 K, 7602 kPa	63.82
273.15 K, 7662 kPa	64.04
274.15 K, 8411 kPa	65.12
274.15 K, 8437 kPa	65.19
274.15 K, 8496 kPa	63.82
275.15 K, 9245 kPa	64.9
275.15 K, 9272 kPa	64.9
275.15 K, 9328 kPa	63.75
276.15 K, 10082 kPa	65.77
276.15 K, 10107 kPa	64.83
276.15 K, 10161 kPa	64.25
277.15 K, 10917 kPa	65.84
277.15 K, 10942 kPa	65.62
277.15 K, 10993 kPa	65.05
278.15 K, 11753 kPa	66.05
278.15 K, 11776 kPa	65.55
278.15 K, 11824 kPa	64.4
279.15 K, 12587 kPa	65.69
279.15 K, 12611 kPa	66.12
279.15 K, 12657 kPa	65.33
280.15 K, 13423 kPa	66.92
280.15 K, 13444 kPa	65.12
280.15 K, 13488 kPa	64.9
281.15 K, 14258 kPa	65.69
281.15 K, 14277 kPa	66.63
281.15 K, 14319 kPa	65.69
282.15 K, 15091 kPa	66.92
282.15 K, 15110 kPa	66.27
282.15 K, 15148 kPa	65.55
283.15 K, 15926 kPa	66.63
283.15 K, 15943 kPa	66.05
283.15 K, 15978 kPa	64.76
284.15 K, 16759 kPa	66.56
284.15 K, 16775 kPa	66.34
284.15 K, 16808 kPa	66.05
285.15 K, 17592 kPa	67.2
285.15 K, 17606 kPa	67.06
285.15 K, 17637 kPa	65.77
286.15 K, 18423 kPa	66.77
286.15 K, 18437 kPa	66.7
286.15 K, 18467 kPa	66.41
287.15 K, 19253 kPa	66.2
287.15 K, 19268 kPa	66.7
287.15 K, 19297 kPa	65.19
288.15 K, 20083 kPa	67.35
288.15 K, 20097 kPa	67.28
288.15 K, 20124 kPa	66.05
289.15 K, 20914 kPa	67.35
289.15 K, 20926 kPa	66.7
289.15 K, 20951 kPa	66.27
290.15 K, 21743 kPa	67.49
290.15 K, 21755 kPa	67.28
290.15 K, 21778 kPa	66.12
291.15 K, 22571 kPa	67.28
291.15 K, 22583 kPa	66.7
291.15 K, 22607 kPa	66.05
292.15 K, 23400 kPa	67.35
292.15 K, 23410 kPa	67.35
292.15 K, 23433 kPa	66.63
293.15 K, 24226 kPa	67.13
293.15 K, 24236 kPa	67.06
293.15 K, 24257 kPa	66.2
294.15 K, 25053 kPa	67.42
294.15 K, 25062 kPa	67.42
294.15 K, 25082 kPa	67.28
295.15 K, 25878 kPa	66.84
295.15 K, 25887 kPa	67.13
295.15 K, 25903 kPa	65.05
296.15 K, 5585 kPa	69.44
296.15 K, 5620 kPa	68.57
296.15 K, 5667 kPa	65.84
296.15 K, 26704 kPa	67.92
296.15 K, 26711 kPa	66.99
296.15 K, 26725 kPa	66.48
297.15 K, 6213 kPa	68.72
297.15 K, 6246 kPa	68.86
297.15 K, 6292 kPa	68.14
297.15 K, 27528 kPa	67.28
297.15 K, 27534 kPa	66.63
297.15 K, 27546 kPa	66.2
298.15 K, 6841 kPa	70.08
298.15 K, 6872 kPa	68.28
298.15 K, 6917 kPa	67.78
298.15 K, 28352 kPa	66.99
298.15 K, 28357 kPa	66.84
